Results as given in patent US20220096473A1, “METHOD FOR TREATING AN ACUTE MYELOID LEUKEMIA” (PTC THERAPEUTICS, INC., priority 2019, published 2022).

Columns and labels:
[1] = test system: p53 mutant mediated AML; conditions: cited from earlier work
[2] = test system: microtubule polymerization; experiment: Mechanistic studies of microtubule polymerization; assay type: biochemical
Description: In addition, Compound 1 combines additively or synergistically with standard clinical regimens, yielding potent and durable cancer regression.

[3] = test system: MOLM13 human AML tumor cells; experiment: AML mouse model, IV-inoculated human AML tumor cells in NOD-SCID mice, survival; assay type: in vivo
Description: FIG. 3. Shown is a survival curve for an in vivo AML NSG mouse model after up to 75 days of treatment with Compound 1 vs. vehicle treated mice (n=5 in vehicle group and n=2 in Compound 1 group).
FIG. 5. Shown is a survival curve for an in vivo AML NSG mouse model after up to 80 days of treatment with a combination of Compound 1 and Compound 2 vs. mice treated with vehicle, Compound 1 alone and Compound 2 alone
The following study was conducted in a mouse model of acute myeloid leukemia (AML) based on intravenous (IV) injection of human […] into male non-obese diabetic (NOD) severe combined immunodeficiency (SID) mice. MOLT-4 cells are CD3 positive. The NOD-SCID mice were obtained from Jackson Laboratory, Bar Harbor Me.
Male NOD-SCID mice were inoculated with MOLM13 human AML tumor cells from ATCC (5×10^6 cells in 200 μL PBS) by intravenous (IV) injection of 0.2 ml/mouse. Three days after tumor inoculation, mice were randomized into four groups of five mice per group, and each group was dosed as follows once each day: (Group 1) orally administered vehicle (0.5% HPMC), (Group 2) orally administered 12.5 mg/kg of Compound 1 in HPMC, (Group 3) orally administered 10 mg/kg of Compound 2 in HPMC, and (Group 4) orally administered a combination of 12.5 mg/kg of Compound 1 and 10 mg/kg of Compound 2 in HPMC for up to 75 days.

[4] = test system: P31-Fujioka cell line; experiment: P31-Fujioka cell line xenograft survival in immunodeficient NRG-SGM3 mice; assay type: in vivo, mouse; conditions: oral Compound 1 from ten days after injection, up to 34 days of treatment, n=5 mice per group, P<0.002
Description: FIG. 1. Shown is a survival curve for an in vivo P31-Fujioka cell line xenograft tumor […] mouse model after up to 34 days of treatment with Compound 1 vs. vehicle treated animals (n=5 mice per group, *P<0.002).
Immunodeficient mice (NRG-SGM3) were injected with the P31-Fujioka cell line. Ten days after injection, engraftment of P31 cells in mice was confirmed by flow-cytometric assessment of the human CD45 marker (data not shown). One cohort of mice was orally administered Compound 1 and an age and engraftment matched hohort was administered vehicle control.

[5] = test system: CALM-AF10-mediated AML; experiment: CALM-AF10-mediated AML leukemogenesis in mouse and human models; conditions: in vitro and in vivo
[6] = test system: MOLT human acute lymphoblastic leukemia (ALL) tumor cells; experiment: ALL mouse model, IV-inoculated MOLT human ALL tumor cells in NOD-SCID mice, survival; assay type: in vivo; conditions: vehicle 70 days
Description: FIG. 6. Shown is a survival curve for an in vivo ALL (Acute Lymphocytic Leukemia) MOLT-4 (CD3 […]) xenograft tumor NSG mouse model after up to 160 days of treatment with Compound 2 vs. vs. mice treated with vehicle, Compound 1, doxorubicin (Dox) and cytarabine (Ara-C). Under various dosing regimens.
Male NOD-SCID mice were inoculated with MOLT human acute lymphoblastic leukemia (ALL) tumor cells from ATCC (1×10^7 cells in 200 μL PBS) by intravenous (IV) injection of 0.2 ml/mouse. Seven days after tumor inoculation, mice were randomized into seven groups of five mice per group, and each group was dosed as follows: (Group 1) orally administered vehicle of 0.5% HPMC and 0.1% Tween 80 daily, (Group 2) orally administered 10 mg/kg Compound 1 twice per week, (Group 3) orally administered 10 mg/kg Compound 2 daily, (Group 4) administered 1 mg/kg doxorubicin by intraperitoneal (IP) injection once per week, (Group 5) administered 0.5 mg/kg doxorubicin by IP injection once per week, (Group 6) administered 50 mg/kg Ara-C twice per week by IP injection, and (Group 7) administered 70 mg/kg Ara-C by IP injection once per week.

[7] = test system: leukemia cell growth; conditions: mouse xenograft models; cited from earlier work

Cc1nc2ccc(F)cc2n1-c1nc(N)c(F)c(Nc2ccc(C(F)(F)F)cc2)n1 [Compound 1, 5-fluoro-2-(6-fluoro-2-methyl-1H-benzo[d]imidazol-1-yl)-N^4-[4-(trifluoromethyl)phenyl]pyrimidine-4,6-diamine]
MCL-1 expression ([1]; p53 mutant mediated AML): reduced MCL-1 expression | induction of apoptosis ([1]; patient-derived CD34+CD38low/- stem/progenitor cells): Apoptosis was induced in a p53-independent manner | microtubule polymerization [2]: inhibit microtubule polymerization | survival vs mice administered Compound 2 alone ([3]; 12.5 mg/kg Compound 1 orally once each day): survived significantly longer | survival (prolongation of life) vs vehicle ([3]; 12.5 mg/kg orally once each day in HPMC, up to 75 days): significant prolongation of life | latency of disease (survival curve) vs vehicle control [4]: significantly delayed the latency of disease | leukemogenesis [5]: impairs leukemogenesis in vitro and in vivo | maximum number of days of survival ([6]; Group 2, 10 mg/kg orally twice per week): 65 days | in vivo anti-leukemia activity [7]: inhibited leukemia cell growth in vivo while sparing normal hematopoietic cells

COc1cccc2c1C(=O)c1c(O)c3c(c(O)c1C2=O)C[C@@](O)(C(=O)CO)C[C@@H]3O[C@H]1C[C@H](N)[C@H](O)[C@H](C)O1 [doxorubicin]
maximum number of days of survival ([6]; Group 4, 1 mg/kg IP once per week): 40 days | maximum number of days of survival ([6]; Group 5, 0.5 mg/kg IP once per week): 40 days

COc1ccc([C@H]2c3[nH]c4ccc(Cl)cc4c3CCN2C(=O)Oc2ccc(Cl)cc2)cc1 [Compound 2, 4-chlorophenyl (S)-6-chloro-1-(4-methoxyphenyl)-1,3,4,9-tetrahydro-2H-pyrido[3,4-b]indole-2-carboxylate]
maximum number of days of survival ([6]; Group 3, 10 mg/kg orally daily): 160 days

Nc1ccn([C@@H]2O[C@H](CO)[C@@H](O)[C@@H]2O)c(=O)n1 [Ara-C, cytarabine]
maximum number of days of survival ([6]; Group 6, 50 mg/kg IP twice per week): 65 days | maximum number of days of survival ([6]; Group 7, 70 mg/kg IP once per week): 70 days
